Assay results taken from patent US5438052A, “Cephalosporin derivatives” (Hoffmann-La Roche Inc., priority 1991, dated 1995).
≈ marks a conversion by molar mass, not a printed value.

Columns and labels:
[1] = test system: Pseudomonas aeruginosa BA; test: Experimental systemic septicaemia in the mouse; format: in vivo; details: sc, 96 h, P. aeruginosa BA, albino mice, s.c. 1, 3 and 5 hours after infection, survival after 4 days, read-out: ED50
Experimental: (§1) 2. Experimental systemic septicaemia in the mouse
(§2) An experimental systemic septicaemia was produced in albino mice weighing 16-20 g by intraperitoneally injecting into the experimental animals a sample of a dilute culture of the test organism which had been grown overnight. The sample administered is calculated such that the dosage administered is about 5-100 times greater than the dosage which is required to kill 50% of untreated experimental animals within 48 hours. The bacteria were injected as a suspension in the culture broth. Groups of 5 experimental animals each were used not only for the control, but also for the treatment for each dosage tested. The products in accordance with the invention were administered subcutaneously as a suspension in Tween 80 (2%), whereby the concentrations were chosen such that each experimental animal received 500 μl per administration. The respective concentrations were administered twice, namely 1 and 3 hours after the infection (in the case of P. aeruginosa three times, namely 1, 3 and 5 hours after the infection). The ED50 is that dosage which protects 50% of the experimental animals and was calculated by means of the Probit method on the basis of the survial rate after 4 days following the infection. The ED50 values in mg/kg s.c. (subcutaneous) for representatives of the class of substance in accordance with the invention are given in Table 2 hereinafter.

P. aeruginosa 799/WT = test: Minimum inhibitory concentration in vitro, agar dilution method; format: cell-based; details: Pseudomonas aeruginosa; P. aeruginosa 799/WT, agar dilution; read-out: MIC
Excerpt: (§3) 1. Minimum Inhibitory Concentration in vitro
(§4) The activities ascertained, minimum inhibitory concentration (MIC) in μg/ml, are compiled in Table 1 hereinafter: […]

E. cloacae P99 = test: as above; format: cell-based; details: Enterobacter cloacae
Excerpt: as §3, §4

E. cloacae 908SSi = test: as above; format: cell-based; details: Enterobacter cloacae; E. cloacae 908SSi, agar dilution; read-out: MIC
Excerpt: as §3, §4

S. aureus 6538 = test: as above; format: cell-based; details: Staphylococcus aureus; S. aureus 6538, agar dilution; read-out: MIC
Excerpt: as §3, §4

S. pyogenes 15 = test: as above; format: cell-based; details: Streptococcus pyogenes; S. pyogenes 15, agar dilution; read-out: MIC
Excerpt: as §3, §4

E. coli 25922 [2] = test: as above; format: cell-based; details: Escherichia coli; E. coli 25922, agar dilution; read-out: MIC
Excerpt: as §3, §4

K. oxytoca 1082 = test: as above; format: cell-based; details: Klebsiella oxytoca; K. oxytoca 1082, agar dilution; read-out: MIC
Excerpt: as §3, §4

P. vulgaris 1028 = test: as above; format: cell-based; details: Proteus vulgaris; P. vulgaris 1028, agar dilution; read-out: MIC
Excerpt: as §3, §4

E. cloacae 908R = test: as above; format: cell-based; details: Enterobacter cloacae; E. cloacae 908R, agar dilution; read-out: MIC
Excerpt: as §3, §4

P. mirabilis 2117 = test: as above; format: cell-based; details: Proteus mirabilis; P. mirabilis 2117, agar dilution; read-out: MIC
Excerpt: as §3, §4

S. marcescens 69438 = test: as above; format: cell-based; details: Serratia marcescens; S. marcescens 69438, agar dilution; read-out: MIC
Excerpt: as §3, §4

P. aeruginosa BA = test: as above; format: cell-based; details: Pseudomonas aeruginosa; P. aeruginosa BA, agar dilution; read-out: MIC
Excerpt: as §3, §4

P. aeruginosa 799/61 = test: as above; format: cell-based; details: Pseudomonas aeruginosa; P. aeruginosa 799/61, agar dilution; read-out: MIC
Excerpt: as §3, §4

P. aeruginosa 27853 = test: as above; format: cell-based; details: Pseudomonas aeruginosa; P. aeruginosa 27853, agar dilution; read-out: MIC
Excerpt: as §3, §4

C. freundii 902 = test: as above; format: cell-based; details: Citrobacter freundii; C. freundii 902, agar dilution; read-out: MIC
Excerpt: as §3, §4

P. aeruginosa MK1184 = test: as above; format: cell-based; details: Pseudomonas aeruginosa; P. aeruginosa MK1184, agar dilution; read-out: MIC
Excerpt: as §3, §4

K. pneumoniae 418 = test: as above; format: cell-based; details: Klebsiella pneumoniae; K. pneumoniae 418, agar dilution; read-out: MIC
Excerpt: as §3, §4

E. coli 25922 [3] = test: Experimental systemic septicaemia in the mouse; format: in vivo; details: Escherichia coli, sc, 96 h; E. coli 25922, albino mice, s.c. 1 and 3 hours after infection, survival after 4 days; read-out: ED50
Experimental: as §1, §2

S. pneumoniae BA = test: Minimum inhibitory concentration in vitro, agar dilution method; format: cell-based; details: Streptococcus pneumoniae; S. pneumoniae BA, agar dilution; read-out: MIC
Excerpt: as §3, §4

`Nc1nc(/C(=N/OCc2nc(=O)c(O)c[nH]2)C(=O)N[C@@H]2C(=O)N3C(C(=O)O)=C(CSc4cc(-c5ccc(O)c(O)c5)nc5ccnn45)CS[C@H]23)cs1` [Example 13, (6R,7R)-7-[(Z)-2-(2-amino-4-thiazolyl)-2-[[(1,4-dihydro-5-hydroxy-4-oxo-2-pyrimidinyl)methoxy]imino]acetamido]-3-[[[5-(3,4-dihydroxyphenyl)pyrazolo[1,5-a]pyrimidin-7-yl]thio]methyl]-8-oxo-5-thia-1-azabicyclo[4.2.0]oct-2-ene-2-carboxylic acid] gave an ED50 [1] of 4 mg/kg, an MIC (P. aeruginosa 799/WT) of 1 µg/mL (≈ 1.31 µM) and an MIC (E. cloacae P99) of 8 µg/mL (≈ 10.5 µM). It also gave an MIC (E. cloacae 908SSi) of 4 µg/mL (≈ 5.23 µM), an MIC (S. aureus 6538) of 16 µg/mL (≈ 20.9 µM) and an MIC (S. pyogenes 15) of 1 µg/mL (≈ 1.31 µM). The MIC (E. coli 25922 [2]) was 0.06 µg/mL (≈ 0.0785 µM), the MIC (K. oxytoca 1082) was 0.06 µg/mL (≈ 0.0785 µM) and the MIC (P. vulgaris 1028) was 0.06 µg/mL (≈ 0.0785 µM). The MIC (E. cloacae 908R) was 1 µg/mL (≈ 1.31 µM), the MIC (P. mirabilis 2117) was 0.06 µg/mL (≈ 0.0785 µM) and the MIC (S. marcescens 69438) was 0.12 µg/mL (≈ 0.157 µM). It also gave an MIC (P. aeruginosa BA) of 2 µg/mL (≈ 2.62 µM), an MIC (P. aeruginosa 799/61) of 0.06 µg/mL (≈ 0.0785 µM) and an MIC (P. aeruginosa 27853) of 4 µg/mL (≈ 5.23 µM). The MIC (C. freundii 902) was 0.25 µg/mL (≈ 0.327 µM), the MIC (P. aeruginosa MK1184) was 8 µg/mL (≈ 10.5 µM) and the MIC (K. pneumoniae 418) was 0.06 µg/mL (≈ 0.0785 µM).

`CC(C)(O/N=C(\C(=O)N[C@@H]1C(=O)N2C(C(=O)O)=C(CS(=O)(=O)c3ccc(O)c(O)c3)CS[C@H]12)c1csc(N)n1)C(=O)NNC(=O)c1ccc(O)c(O)c1` [Example 47, (6R,7R)-7-[(Z)-2-(2-amino-4-thiazolyl)-2-[[1-[3-(3,4-dihydroxybenzoyl)carbazoyl]-1-methylethoxy]imino]acetamido]-3-[[(3,4-dihydroxyphenyl)sulphonyl]methyl]-8-oxo-5-thia-1-azabicyclo[4.2.0]oct-2-ene-2-carboxylic acid] was tested, and the ED50 (E. coli 25922 [3]) was < 0.1 mg/kg, the ED50 [1] was 0.1 mg/kg and the MIC (P. aeruginosa 799/WT) was 4 µg/mL (≈ 5.05 µM). The MIC (E. cloacae P99) was 16 µg/mL (≈ 20.2 µM), the MIC (E. cloacae 908SSi) was 8 µg/mL (≈ 10.1 µM) and the MIC (S. aureus 6538) was 32 µg/mL (≈ 40.4 µM). It also gave an MIC (S. pyogenes 15) of 1 µg/mL (≈ 1.26 µM), an MIC (E. coli 25922 [2]) of 0.12 µg/mL (≈ 0.152 µM) and an MIC (K. oxytoca 1082) of 0.25 µg/mL (≈ 0.316 µM). For the same compound, the MIC (P. vulgaris 1028) was 0.25 µg/mL (≈ 0.316 µM), the MIC (E. cloacae 908R) was 1 µg/mL (≈ 1.26 µM) and the MIC (P. mirabilis 2117) was 0.12 µg/mL (≈ 0.152 µM). It also gave an MIC (S. marcescens 69438) of 0.25 µg/mL (≈ 0.316 µM), an MIC (P. aeruginosa BA) of 4 µg/mL (≈ 5.05 µM) and an MIC (P. aeruginosa 799/61) of 0.25 µg/mL (≈ 0.316 µM). The MIC (P. aeruginosa 27853) was 4 µg/mL (≈ 5.05 µM), the MIC (C. freundii 902) was 0.5 µg/mL (≈ 0.631 µM) and the MIC (P. aeruginosa MK1184) was > 32 µg/mL. For the same compound, the MIC (S. pneumoniae BA) was 1 µg/mL (≈ 1.26 µM) and the MIC (K. pneumoniae 418) was < 0.1 µg/mL.

`Nc1nc(/C(=N/OCc2ccc(O)c(O)c2)C(=O)N[C@@H]2C(=O)N3C(C(=O)O)=C(CS(=O)(=O)c4ccc(O)c(O)c4)CS[C@H]23)cs1` [Example 23, (6R,7R)-7-[(Z)-2-(2-amino-4-thiazolyl)-2-[[(3,4-dihydroxybenzyl)oxy]imino]acetamido]-3-[[(3,4-dihydroxyphenyl)sulphonyl]methyl]-8-oxo-5-thia-1-azabicyclo[4.2.0]oct-2-ene-2-carboxylic acid] was tested, and the MIC (P. aeruginosa 799/WT) was 1 µg/mL (≈ 1.48 µM), the MIC (E. cloacae P99) was > 32 µg/mL and the MIC (E. cloacae 908SSi) was 16 µg/mL (≈ 23.6 µM). For the same compound, the MIC (S. aureus 6538) was 16 µg/mL (≈ 23.6 µM), the MIC (S. pyogenes 15) was 4 µg/mL (≈ 5.9 µM) and the MIC (E. coli 25922 [2]) was 0.25 µg/mL (≈ 0.369 µM). For the same compound, the MIC (K. oxytoca 1082) was 16 µg/mL (≈ 23.6 µM), the MIC (P. vulgaris 1028) was 2 µg/mL (≈ 2.95 µM) and the MIC (E. cloacae 908R) was > 32 µg/mL. The MIC (P. mirabilis 2117) was 1 µg/mL (≈ 1.48 µM), the MIC (S. marcescens 69438) was 2 µg/mL (≈ 2.95 µM) and the MIC (P. aeruginosa BA) was 32 µg/mL (≈ 47.2 µM). For the same compound, the MIC (P. aeruginosa 799/61) was 0.12 µg/mL (≈ 0.177 µM), the MIC (P. aeruginosa 27853) was 32 µg/mL (≈ 47.2 µM) and the MIC (C. freundii 902) was 4 µg/mL (≈ 5.9 µM). For the same compound, the MIC (P. aeruginosa MK1184) was > 32 µg/mL, the MIC (S. pneumoniae BA) was 4 µg/mL (≈ 5.9 µM) and the MIC (K. pneumoniae 418) was 0.12 µg/mL (≈ 0.177 µM).
